This is an account of results in patent US5882851A, “Cytochrome P-450 monooxygenases” (Novartis Finance Corporation, priority 1993, dated 1999).

The target of the data set is T1, cytochrome P-450TYR (Sorghum bicolor, UniProt Q43135).
T1 construct: from tissue; host or cells: microsomes of etiolated Sorghum bicolor seedlings, solubilised and purified by dye columns
T1 sequence (Q43135 1-558): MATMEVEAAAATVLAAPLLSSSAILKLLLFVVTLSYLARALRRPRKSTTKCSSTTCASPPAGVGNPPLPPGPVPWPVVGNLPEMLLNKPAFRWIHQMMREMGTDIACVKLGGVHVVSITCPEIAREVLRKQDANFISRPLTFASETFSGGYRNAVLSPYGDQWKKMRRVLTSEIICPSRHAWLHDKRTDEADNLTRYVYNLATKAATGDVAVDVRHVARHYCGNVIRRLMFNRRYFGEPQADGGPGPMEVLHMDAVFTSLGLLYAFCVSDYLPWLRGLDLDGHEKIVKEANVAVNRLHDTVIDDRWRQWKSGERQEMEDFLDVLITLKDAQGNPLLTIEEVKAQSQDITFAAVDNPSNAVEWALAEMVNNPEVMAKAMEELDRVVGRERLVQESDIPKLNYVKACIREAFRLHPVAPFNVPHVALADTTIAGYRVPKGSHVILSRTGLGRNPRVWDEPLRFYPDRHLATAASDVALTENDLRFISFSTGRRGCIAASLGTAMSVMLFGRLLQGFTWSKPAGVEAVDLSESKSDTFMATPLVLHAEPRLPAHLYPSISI
Nature of the data set: Substrate binding spectra of isolated sorghum cytochrome P-450TYR (difference spectrum A390-420). The procedure:
Cytochrome P-450 substrate binding spectra are recorded with stepwise increased substrate concentration until saturating conditions are reached.
Cytochrome P-450TYR in the oxidized state has a strong absorption peak at 420 nm, representing the low spin state of the iron of the heme group. The binding of a ligand to the heme group shifts the absorption maximum by changing the spin state of the iron. […] The following experimental procedure is used to obtain the substrate binding spectrum: two identical cuvettes containing a buffered solution of the isolated cytochrome P-450 are prepared. The substrate of the enzyme is added to the sample cuvette whereas the same volume of buffer is added to the other cuvette. The difference spectrum is then recorded in an SLM-Aminco DW2c spectrophotometer. The absorption difference, A390-420, is proportional to the concentration of cytochrome P-450TYR with a bound substrate at its active site. If a saturating concentration of substrate is added to the sample cuvette, the absorption difference is proportional to the concentration of the substrate specific cytochrome P-450 in the cuvettes. The saturating concentration of the substrate is determined by titrating the cytochrome P-450 sample with increasing amounts of substrate and monitoring A390-420.
If a cytochrome P-450 sample can be saturated with two different substrates, there may be two different cytochrome P-450 enzymes in the sample, or there may be one cytochrome P-450 enzyme able to bind to both substrates. To discriminate between these possibilities, saturating amounts of the two substrates are added sequentially and the A390-420absorption change is monitored. If, independent of the order of addition, the addition of the second sample gives rise to an increased A390-420value compared to the value after the addition of the first substrate, the two substrates are bound by different enzymes. If A390-420 remains unchanged upon addition of the second substrate, independent of the order of addition, both substrates bind to the same active site, i.e. to the same cytochrome P-450 enzyme.

Turning to `N[C@@H](Cc1ccc(O)cc1)C(=O)O` [tyrosine, L-tyrosine], the “initial A390-420” value is, setting by setting: (30 μl 5 mM tyrosine added to 500 μl P-450TYR) 0,0437; (60 μl 5 mM tyrosine) 0,0496; (90 μl 5 mM tyrosine) 0,0486. Further, the “resulting A390-420” value is recorded as 0,0463 (30 μl 5 mM tyrosine, dilution factor 530/500); 0,0556 (60 μl 5 mM tyrosine, dilution factor 560/500); 0,0573 (90 μl 5 mM tyrosine, dilution factor 590/500). Also, under “isolated sorghum P-450TYR”, the “type of substrate binding spectrum” value is listed as “type I binding spectrum”.
